# Measured values taken from patent publication US20040191902A1, “Growth and differentiation of stem cells” (Pfizer Inc, priority 2003, published 2004).
# B1: mouse recombinant OSM: mouse recombinant oncostatin M (protein, UniProt P53347 25-206, looked up)
# Oncostatin-M: NRGCSNSSSQLLSQLQNQANLTGNTESLLEPYIRLQNLNTPDLRAACTQHSVAFPSEDTLRQLSKPHFLSTVYTTLDRVLYQLDALRQKFLKTPAFPKLDSARHNILGIRNNVFCMARLLNHSLEIPEPTQTDSGASRSTTTPDVFNTKIGSCGFLWGYHRFMGSVGRVFREWDDGSTRSRR
# Tests used:
# [1] = test system: CYP3a, CYP2d, CYP2e1 and CYP1a2 in hepatocyte-like cells; assay: Conversion of test compounds by hepatocyte-like cells (HPLC and mass spectrometry of supernatants)
# Protocol: The presence of CYP proteins in the hepatocyte-like cells was also determined by monitoring the conversion of certain compounds added to the hepatocyte-like cells. Two test compounds (7-ethoxy-coumarin and dextromethorphan) were added to hepatocyte-like cells. The supernatants of the cells were then subjected to high pressure liquid chromatography (HPLC) and mass spectrometry to identify products of the conversion of the test compounds by CYP3a, CYP2d, CYP2e1 and CYP1a2.
# hepatocyte-like cells = assay: Dibenzylfluorescein (DBF) assay for metabolic activity of hepatocyte-like cells; assay type: in vitro ADME, mouse; conditions: hepatocyte-like cells differentiated in presence or absence of HPO
# Protocol: Another test that was used to characterize the hepatocyte-like cells is the dibenzylfluorescein (DBF) assay for metabolic activity. See, for example, Stresser et al., Drug Metab. Disp., 28:1440-48 (2000). These assays were conducted using a DBF compound (Molecular Probes, Eugene Oreg.) according to the manufacturer's recommendations.
# 4MBr-5 cell line = conditions: 3H-thymidine incorporation, typical range; cited from earlier work
# TF-1 cell line = conditions: proliferation of TF-1; typical range; cited from earlier work
# Balb/3T3 cell line = conditions: 3H-thymidine incorporation, typical range; cited from earlier work
# [2] = test system: cells differentiating from ES cells into hepatocyte-like cells; assay: In vitro differentiation of mouse ES cells into hepatocyte-like cells with hepatopoietin added to the media; assay type: cell-based
# Protocol: Mouse ES cells were differentiated into hepatocyte-like cells as described above, with the addition of 50 ng/ml mouse hepatopoietin protein to the HepII, HepIII and/or HepIV media. The mouse hepatopoietin protein consisted of a portion of the wild-type protein, which portion has the amino acid sequence set forth in SEQ ID NO: 16.
# The presence of hepatopoietin in either medium had this effect, but the strongest effect was seen when it was included in all three media, i.e., during the middle stage, the late stage and the maturation and selection stage. In this case, it appeared that over 90% of the cells in the culture were hepatocyte-like cells.
# NIH/3T3 cells = conditions: 3H-thymidine incorporation, quiescent NIH/3T3; typical range; cited from earlier work
molecule,measurement,setting,value
CCOc1ccc2ccc(=O)oc2c1 [7-ethoxy-coumarin],"conversion products by CYP3a, CYP2d, CYP2e1 and CYP1a2",[1]; hepatocytes,expected conversion products were obtained
"O=C(OCc1ccccc1)c1ccccc1-c1c2ccc(=O)cc-2oc2cc(OCc3ccccc3)ccc12 [DBF, dibenzylfluorescein]",DBF assay for metabolic activity,hepatocyte-like cells,positive
COc1ccc2c(c1)[C@]13CCCC[C@@H]1[C@H](C2)N(C)CC3 [dextromethorphan],"conversion products by CYP3a, CYP2d, CYP2e1 and CYP1a2","[1]; added to hepatocyte-like cells, supernatants by HPLC and mass spectrometry",expected conversion products were obtained
human recombinant HGF: human recombinant hepatocyte growth factor,ED50,4MBr-5 cell line,20 to 40 ng/mL
human recombinant OSM: human recombinant oncostatin M,ED50,TF-1 cell line,0.1 to 3 ng/mL
human recombinant aFGF: human recombinant acidic fibroblast growth factor,ED50,Balb/3T3 cell line,2 to 10 ng/mL
"mouse HPO: portion of wild-type mouse hepatopoietin, 125 amino acids, SEQ ID NO: 16, produced in E. coli",proliferation of cells giving rise to hepatocyte-like cells,"[2]; 50 ng/ml in HepII, HepIII and/or HepIV media",stimulates the proliferation
same,cells in the culture that were hepatocyte-like cells,"[2]; 50 ng/ml included in all three media (middle, late, maturation and selection stages)",over 90%
B1,ED50,NIH/3T3 cells,2 to 4 ng/mL
